The record followed here is ChEMBL document CHEMBL5154648, “Antitumor activity of novel POLA1-HDAC11 dual inhibitors” (Eur J Med Chem, 2022).

A short description of experiment [1]: Antiproliferative activity against human H460-R9A cells incubated for 24 hrs followed by incubating in drug-free medium for 48 hrs and measured by SRB assay. In kind it is functional, cell-based. (In SRB staining, fixed cells bind dye roughly in proportion to their protein.)
A short description of experiment [2]: Antiproliferative activity against multi-drug resistant human A2780-DX cells incubated for 24 hrs followed by incubating in drug-free medium for 48 hrs and measured by SRB assay. In kind it is functional, cell-based.
Experiment [3] has as its system NCI-H460. Put plainly: Antiproliferative activity against human NCI-H460 cells incubated for 24 hrs followed by incubating in drug-free medium for 48 hrs and measured by SRB assay. In kind it is functional, cell-based.
For a further experiment, the system named is A2780. Put plainly: Antiproliferative activity against human A2780 cells incubated for 24 hrs followed by incubating in drug-free medium for 48 hrs and measured by SRB assay. The format is functional, cell-based.
The nature of experiment [4]: Resistance index, ratio of IC50 for human A2780 cells to IC50 for A2780-DX cells. The format is functional.
A short description of experiment [5]: Resistance index, ratio of IC50 for human NCI-H460 cells to IC50 for H460-R9A cells. In kind it is functional.
The target in experiment [6] is T1, DNA polymerase alpha catalytic subunit (Homo sapiens) (UniProt P09884).
T1 sequence (whole entry): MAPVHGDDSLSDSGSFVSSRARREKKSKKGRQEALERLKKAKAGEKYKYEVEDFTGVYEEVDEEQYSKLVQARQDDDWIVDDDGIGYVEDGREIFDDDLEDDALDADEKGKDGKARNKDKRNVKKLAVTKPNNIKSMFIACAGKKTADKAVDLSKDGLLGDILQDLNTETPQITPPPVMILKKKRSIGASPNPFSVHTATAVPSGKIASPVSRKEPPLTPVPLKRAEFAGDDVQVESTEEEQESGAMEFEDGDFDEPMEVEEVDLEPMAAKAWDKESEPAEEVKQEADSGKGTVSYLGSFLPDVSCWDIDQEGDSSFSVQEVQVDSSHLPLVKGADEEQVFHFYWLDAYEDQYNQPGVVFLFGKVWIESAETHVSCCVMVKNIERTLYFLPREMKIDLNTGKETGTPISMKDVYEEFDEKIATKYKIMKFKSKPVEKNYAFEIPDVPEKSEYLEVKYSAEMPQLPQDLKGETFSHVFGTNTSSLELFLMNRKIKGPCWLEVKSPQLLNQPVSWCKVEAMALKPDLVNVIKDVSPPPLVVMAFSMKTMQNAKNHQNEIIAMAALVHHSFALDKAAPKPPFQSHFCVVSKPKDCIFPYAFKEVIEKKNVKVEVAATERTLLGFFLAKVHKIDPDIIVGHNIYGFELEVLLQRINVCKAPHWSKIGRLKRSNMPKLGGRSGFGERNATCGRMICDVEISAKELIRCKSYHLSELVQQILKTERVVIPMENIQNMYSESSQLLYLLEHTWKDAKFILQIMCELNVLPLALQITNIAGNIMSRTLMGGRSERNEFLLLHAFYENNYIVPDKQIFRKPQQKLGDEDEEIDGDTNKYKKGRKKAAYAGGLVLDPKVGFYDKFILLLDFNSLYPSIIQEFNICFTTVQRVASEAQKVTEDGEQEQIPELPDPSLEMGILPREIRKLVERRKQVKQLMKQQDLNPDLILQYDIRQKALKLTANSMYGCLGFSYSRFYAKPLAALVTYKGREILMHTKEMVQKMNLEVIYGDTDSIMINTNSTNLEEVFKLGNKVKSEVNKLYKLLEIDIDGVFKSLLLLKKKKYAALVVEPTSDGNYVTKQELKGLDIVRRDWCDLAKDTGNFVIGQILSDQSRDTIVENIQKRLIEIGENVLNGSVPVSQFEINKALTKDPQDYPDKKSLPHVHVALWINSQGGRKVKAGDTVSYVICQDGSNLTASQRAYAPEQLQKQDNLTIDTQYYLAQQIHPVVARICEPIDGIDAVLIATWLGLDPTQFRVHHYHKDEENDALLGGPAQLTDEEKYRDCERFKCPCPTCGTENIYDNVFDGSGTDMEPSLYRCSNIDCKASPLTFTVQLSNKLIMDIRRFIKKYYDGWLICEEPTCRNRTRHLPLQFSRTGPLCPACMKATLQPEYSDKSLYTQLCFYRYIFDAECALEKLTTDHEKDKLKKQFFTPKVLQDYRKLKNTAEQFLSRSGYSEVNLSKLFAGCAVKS
Briefly: Inhibition of POLA1 in human NCI-H460 cells at 7.4 uM assessed as upregulation of p21 expression and measured by Western blot analysis. The format is cell-based. In general terms: Immunoblotting shows a protein as a band on a membrane.

The test system of experiment [7] is NCI-H460. Briefly: Induction of DNA damage in human NCI-H460 cells at 7.4 uM assessed as increase in p-H2AX levels and measured by Western blot analysis. In kind it is functional, cell-based.
Experiment [8] can be described thus: Induction of cell cycle arrest in human H460-R9A cells assessed as accumulation of cells at S phase at 1.9 uM after 72 hrs by flow cytometry (reference value: 34.5%). The format is functional.
The test system of the next experiment is L-428. Briefly: Antiproliferative activity against human L-428 cells incubated for 24 hrs followed by incubating in drug-free medium for 48 hrs and measured by SRB assay. In kind it is functional, cell-based.
The subject of experiment [9] is NCI-H460. Put plainly: Induction of cell cycle arrest in human NCI-H460 cells assessed as accumulation of cells at G2/M phase at 4.2 uM after 72 hrs by flow cytometry (reference value: 21.1%). The format is functional. Background: In flow cytometry, cells or beads pass a laser one at a time.
For experiment [10], the system named is NCI-H460. Briefly: Antiproliferative activity against human NCI-H460 cells at 7.4 uM assessed as reduction in PIN1 level and measured by Western blot analysis. In kind it is functional, cell-based.
Experiment [11] has as its system NCI-H460. Put plainly: Induction of cell cycle arrest in human NCI-H460 cells assessed as accumulation of cells at S phase at 4.2 uM after 72 hrs by flow cytometry (reference value: 32.1%). In kind it is functional.
The nature of experiment [12]: Induction of cell cycle arrest in human H460-R9A cells assessed as accumulation of cells at G2/M phase at 1.9 uM after 72 hrs by flow cytometry (reference value: 15.4%). The format is functional.
Experiment [13] deals with NCI-H460. Put plainly: Induction of cell cycle arrest in human NCI-H460 cells assessed as accumulation of cells at sub-G1 phase at 4.2 uM after 72 hrs by flow cytometry (reference value: 1.1%). In kind it is functional.
Experiment [14] has as its system NCI-H460. Briefly: Induction of cell cycle arrest in human NCI-H460 cells assessed as accumulation of cells at G0/1 phase at 4.2 uM after 72 hrs by flow cytometry (reference value: 46.8%). The format is functional.
The subject of experiment [15] is NCI-H460. Put plainly: Antiproliferative activity against human NCI-H460 cells at 7.4 uM assessed as reduction in p-ERK1/2 level and measured by Western blot analysis. The format is functional, cell-based.
Experiment [16] in a line: Induction of cell cycle arrest in human H460-R9A cells assessed as accumulation of cells at G0/1 phase at 1.9 uM after 72 hrs by flow cytometry (reference value: 50.1%). The format is functional.
Experiment [17] is described as follows: Induction of cell cycle arrest in human H460-R9A cells assessed as accumulation of cells at sub-G1 phase at 1.9 uM after 72 hrs by flow cytometry (reference value: 1.5%). The format is functional.
The subject of another experiment is H460-R9A. Briefly: Antiproliferative activity against human H460-R9A cells at 3.75 to 60 uM after 72 hrs by MTT assay. In kind it is functional, cell-based. Conditions: dose 3.75-60 µM.

Active and inactive are the calls of the source. The calls are words filed in the database; no cut-off is given here. Some results are limits rather than exact numbers.

For `O=C(O)C=Cc1ccc(-c2ccc(OCCC(=O)O)c(C34CC5CC(CC(C5)C3)C4)c2)cc1`, the IC50 (in general, the midpoint of a concentration-inhibition curve) in experiment [1] was > 10 µM; in [2], 23.8 µM; with NCI-H460 [3], 10 µM; in the experiment on A2780 it was 10 µM. Besides, in experiment [4], the “Ratio IC50” value was found to be 2.38.

Consider `O=C(O)C=Cc1ccc(-c2ccc(OCCCC(=O)NO)c(C34CC5CC(CC(C5)C3)C4)c2)cc1`, for which the IC50 in [1] was 8.3 µM; in [2] it was 3.9 µM; with NCI-H460 [3], 1.7 µM; in the experiment with A2780 it was 4.2 µM. Besides, the “Ratio IC50” value came to 4.9 in experiment [5] and 0.9 in experiment [4].

For `O=C(CCCCCCC(=O)Nc1ccccc1)NO` [VORINOSTAT], the inhibition entry in [6] is “Active”. The outcome with NCI-H460 [7], in the experiment with NCI-H460 [10] and in the experiment on NCI-H460 [15] was Active. Besides, the Activity in experiment [8] amounted to 14.7%; in the experiment on NCI-H460 [9] it was 23.1%; with NCI-H460 [11], 11.7%; in experiment [12], 21%; with NCI-H460 [13], 1.8%; in the experiment on NCI-H460 [14] it was 65.2%. Moreover, the Activity in [16] stood at 62.2%; in experiment [17], 2.1%. In addition, the IC50 with L-428 was found to be 2.3 µM; in experiment [2], 33 µM.

For the compound `O=C(O)C=Cc1ccc(-c2ccc(OCCCCC(=O)NO)c(C34CC5CC(CC(C5)C3)C4)c2)cc1`, the IC50 in experiment [1] is 8.6 µM; in experiment [2] it was 6.4 µM; in the experiment with NCI-H460 [3], 1.9 µM; in the experiment with A2780 it was 3.6 µM. For the same compound, the entries for the “Ratio IC50” value in [5] and in experiment [4] were 4.5 and 1.7, respectively.

In the case of `O=C(O)C=Cc1ccc(-c2ccc(OCCCCCCCC(=O)NO)c(C34CC5CC(CC(C5)C3)C4)c2)cc1`, the IC50 is 9.6 µM in experiment [1] and 5.5 µM with NCI-H460 [3]. Moreover, in experiment [5], the “Ratio IC50” value came to 1.7.

As for `CC(C)(Oc1ccc(-c2ccc(C=CC(=O)O)cc2)cc1C12CC3CC(CC(C3)C1)C2)C(=O)NO`, the results for the IC50 (in [1]; with NCI-H460 [3]) were 7.3 µM and 1.3 µM, respectively. For the same compound, the “Ratio IC50” value in experiment [5] turned out to be 5.6.

For `CCCCCCCCCCCCCCCCNNC(=O)c1cccs1`, in the experiment with H460-R9A, the outcome was Active.

With `O=C(O)C=Cc1ccc(-c2ccc(OCCC(=O)NO)c(C34CC5CC(CC(C5)C3)C4)c2)cc1`, the IC50 was 10.6 µM in [1] and 8.3 µM with NCI-H460 [3]. The “Ratio IC50” value in [5] was 1.3.

As to `O=C(O)C=Cc1ccc(-c2ccc(OCC(=O)O)c(C34CC5CC(CC(C5)C3)C4)c2)cc1`, the IC50 (in experiment [1]; in the experiment with NCI-H460 [3]) was > 10 µM each time.
